Format in all cases: in vivo
In assay [1] the test system is TNF-α secreted by synoviocyte. Description: Content of TNF-α in culture supernatant of synoviocyte of RA model rats given test compound. The conditions noted are these: rat RA model, dose 30 mg/kg.2d; normal control 0.38 ± 0.027, NaCl 0.74 ± 0.098. The source says:
(§1) Take Compound 1-50 prepared as per the method according to the present invention and employ the method provided in Reference to prepare model, group drugs and prepare culture supernatant of rat synoviocyte.
(§2) Employ the method provided in Reference to investigate the effects of the test compounds on the synoviocyte to secrete TNF-α and PGE2. Employ the method provided in Reference to investigate the effects of the test compounds on the synoviocyte to secrete IL-1β.
(§3) The experimental data of the test compound 1-50 at a dose of 30 mg/kg.2d as well as the normal control and NaCl group are as follows: […]

In assay [2] the test system is IL-1β secreted by synoviocyte. Description: Content of IL-1β in culture supernatant of synoviocyte of RA model rats given test compound. The conditions noted are these: rat RA model, dose 30 mg/kg.2d; normal control 0.16 ± 0.034, NaCl 0.49 ± 0.136.
Description: as §1, §2, §3

Assay [3] deals with PGE2 secreted by synoviocyte. The assay can be described thus: Content of PGE2 in culture supernatant of synoviocyte of RA model rats given test compound. Particulars: rat RA model, dose 30 mg/kg.2d; normal control 8.34 ± 1.29, NaCl 32.44 ± 10.32.
Description: as §1, §2, §3

Consider `COC(=O)c1cn(C[C@@H]2C(=O)O[C@H]3[C@H]2CCC2(CC2)[C@@H]2CCC4(CC4)[C@H]32)nn1` [Compound 44], for which, in assay [1], the “Content of TNF-α in culture supernatant of synoviocyte (x ± s)” value (from here on “Content of TNF-α”) is 0.54 ± 0.071 ng/mL. For the same compound, the “Content of IL-1β in culture supernatant of synoviocyte (x ± s)” value (“Content of IL-1β” below) in assay [2] came out at 0.35 ± 0.069 ng/mL. In addition, the “Content of PGE2 in culture supernatant of synoviocyte (x ± s)” value (shortened to “Content of PGE2”) in assay [3] is recorded as 22.14 ± 2.87 ng/mL.

With `C=CCCC(=O)OC1(C)CCC2=C(C)CCC3C(=C)C(=O)OC3C21` (stereo not drawn) [Compound 18], the “Content of TNF-α” value in assay [1] is listed as 0.64 ± 0.072 ng/mL. For the same compound, in assay [2], the “Content of IL-1β” value is 0.39 ± 0.029 ng/mL. Also, in assay [3], the “Content of PGE2” value is 20.62 ± 2.47 ng/mL.

On to `C=C1C(=O)OC2C1CCC(C)=C1CCC(C)(OC(=O)C=C(C)C)C12` (stereo not drawn) [Compound 16], for which, in assay [1], the “Content of TNF-α” value was 0.57 ± 0.073 ng/mL. Further, the “Content of IL-1β” value in assay [2] came to 0.34 ± 0.039 ng/mL. Moreover, the “Content of PGE2” value in assay [3] is recorded as 27.61 ± 4.21 ng/mL.

Take `O=C1O[C@H]2[C@@H](CCC3(CC3)[C@@H]3CCC4(CC4)[C@H]23)[C@@H]1CSc1ccccc1` [Compound 31]: the “Content of TNF-α” value in assay [1] is on record as 0.62 ± 0.056 ng/mL. In addition, in assay [2], the “Content of IL-1β” value is listed as 0.39 ± 0.051 ng/mL. Also, the “Content of PGE2” value in assay [3] was 24.41 ± 1.65 ng/mL.

With `COC[C@@H]1C(=O)O[C@H]2[C@H]1CCC1(CC1)[C@@H]1CCC3(CC3)[C@H]21` [Compound 30], in assay [1], the “Content of TNF-α” value is recorded as 0.65 ± 0.057 ng/mL. In assay [2], the “Content of IL-1β” value worked out at 0.38 ± 0.049 ng/mL. Besides, the “Content of PGE2” value in assay [3] came out at 25.37 ± 4.21 ng/mL.

Take `O=C1O[C@H]2[C@@H](CCC3(CC3)[C@@H]3CCC4(CC4)[C@H]23)[C@@H]1Cn1cc(-c2ccccc2)nn1` [Compound 43]: the “Content of TNF-α” value in assay [1] came out at 0.55 ± 0.045 ng/mL. Further, in assay [2], the “Content of IL-1β” value is recorded as 0.43 ± 0.062 ng/mL. Moreover, the “Content of PGE2” value in assay [3] is 24.64 ± 3.95 ng/mL.

As to `O=C1O[C@H]2[C@@H](CCC3(CC3)[C@@H]3CCC4(CC4)[C@H]23)[C@@H]1CNCc1ccccc1` [Compound 33], the “Content of TNF-α” value in assay [1] was found to be 0.63 ± 0.054 ng/mL. Further, the “Content of IL-1β” value in assay [2] worked out at 0.41 ± 0.052 ng/mL. Moreover, the “Content of PGE2” value in assay [3] came out at 26.64 ± 2.67 ng/mL.

With `CN(CCO)C[C@@H]1C(=O)O[C@H]2[C@H]1CCC1(CC1)[C@@H]1CCC3(CC3)[C@H]21` [Compound 40], the “Content of TNF-α” value in assay [1] came to 0.48 ± 0.078 ng/mL. Further, the “Content of IL-1β” value in assay [2] was 0.31 ± 0.061 ng/mL. For the same compound, in assay [3], the “Content of PGE2” value is given as 25.34 ± 3.57 ng/mL.

As for `CC(O)c1cn(C[C@@H]2C(=O)O[C@H]3[C@H]2CCC2(CC2)[C@@H]2CCC4(CC4)[C@H]32)nn1` (stereo partly drawn) [Compound 45], the “Content of TNF-α” value in assay [1] was 0.49 ± 0.056 ng/mL. The “Content of IL-1β” value in assay [2] was 0.38 ± 0.039 ng/mL. For the same compound, in assay [3], the “Content of PGE2” value turned out to be 23.26 ± 3.49 ng/mL.

In the case of `O=C1O[C@H]2[C@@H](CCC3(CC3)[C@@H]3CCC4(CC4)[C@H]23)[C@@H]1CN1CCOCC1` [Compound 38], the “Content of TNF-α” value in assay [1] was 0.67 ± 0.045 ng/mL. The “Content of IL-1β” value in assay [2] came to 0.35 ± 0.062 ng/mL. Moreover, the “Content of PGE2” value in assay [3] is listed as 19.67 ± 3.14 ng/mL.

The values above are taken from patent publication US10463644B2, “Uses of sesquiterpene lactone compounds and their derivatives in drugs preparation” (ACCENDATECH, priority 2013, dated 2019).
